Data on twelve molecules can be found in ChEMBL document CHEMBL1137157, “Synthesis and biological activity of 2-anilino-4-(1H-pyrrol-3-yl) pyrimidine CDK inhibitors” (Bioorg Med Chem Lett, 2004).

Assay [1] deals with Cell line. Briefly: inhibitory concentration for anti-proliferative activity against A549 and […] human tumor cell lines was determined. The class given is functional, cell-based.
In assay [2] the target is Cyclin-dependent kinase 2 (Homo sapiens, UniProt P24941). As to the kind of experiment: Inhibition of Cyclin dependent kinase 2.
Assay [3] deals with Cyclin-dependent kinase 4 (Homo sapiens, UniProt P11802). As to the kind of experiment: Inhibition of Cyclin dependent kinase 4.
Sequence of Cyclin-dependent kinase 4 (P11802 whole entry): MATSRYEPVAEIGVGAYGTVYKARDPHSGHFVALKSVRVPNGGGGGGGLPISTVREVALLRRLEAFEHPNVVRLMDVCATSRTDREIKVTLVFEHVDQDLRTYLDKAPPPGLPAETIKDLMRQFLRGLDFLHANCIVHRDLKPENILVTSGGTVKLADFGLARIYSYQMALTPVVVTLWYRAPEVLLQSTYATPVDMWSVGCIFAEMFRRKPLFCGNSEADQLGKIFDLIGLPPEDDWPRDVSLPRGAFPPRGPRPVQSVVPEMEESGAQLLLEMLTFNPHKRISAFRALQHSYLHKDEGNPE

As for `Cc1ccc(Nc2nccc(-c3c(C)[nH]c(C#N)c3C)n2)cc1[N+](=O)[O-]`, in assay [1], the IC50 was determined as 380 nM.

In assay [1], `Cc1[nH]c(C#N)c(C)c1-c1ccnc(Nc2ccc(O)cc2)n1` returned a half-inhibitory concentration (IC50) of 1360 nM.

As to `Cc1[nH]c(Br)c(C)c1-c1ccnc(Nc2ccc(F)cc2)n1`, the Ki in assay [2] is 270 nM. Half-maximal inhibition in assay [1] (IC50) was put at 16000 nM.

On to `Cc1cc(Nc2nccc(-c3c(C)[nH]c(C#N)c3C)n2)ccc1F`, for which the Ki in assay [3] stood at 300 nM. The molecule also registered an IC50 in assay [1] of 890 nM.

As to `Cc1[nH]c(C#N)c(C)c1-c1ccnc(Nc2ccc(F)cc2)n1`, the affinity in assay [2], expressed as Ki, was 100 nM. In assay [1], this molecule came in with an IC50 of 2440 nM.

As to `Cc1[nH]c(C#N)c(C)c1-c1ccnc(Nc2cccc([N+](=O)[O-])c2)n1`, in assay [1], 360 nM corresponded to half-maximal inhibition (IC50).

In assay [1], `Cc1ccc(Nc2nccc(-c3c(C)[nH]c(C#N)c3C)n2)cc1O` returned a half-inhibitory concentration (IC50) of 1170 nM.

`Cc1[nH]c(C#N)c(C)c1-c1ccnc(Nc2cccc(O)c2)n1` came in with an inhibitory constant (Ki) in assay [2] of 30 nM. Besides, in assay [1], the half-maximal inhibitory concentration (IC50) turned out to be 1840 nM.

The molecule `Cc1[nH]c(C(N)=O)c(C)c1-c1ccnc(Nc2ccc(F)cc2)n1` had an inhibition constant Ki in assay [3] of 420 nM. In assay [1], this molecule came in with an IC50 of 1640 nM.

In assay [3], `Cc1c[nH]c(C)c1-c1ccnc(Nc2cccc([N+](=O)[O-])c2)n1` yielded an inhibition constant (Ki) of 4170 nM.

Consider `Cc1[nH]c([N+](=O)[O-])c(C)c1-c1ccnc(Nc2ccc(F)cc2)n1`, for which, in assay [3], the Ki came out at 120 nM. Further, half-maximal inhibition in assay [1] (IC50) required 3120 nM.

With `Cc1[nH]c(Cl)c(C)c1-c1ccnc(Nc2ccc(F)cc2)n1`, the inhibitory constant (Ki) in assay [2] turned out to be 360 nM. In addition, the IC50 in assay [1] was 13000 nM.
